Measurements: the NIST ThermoML archive (doi:10.1016/j.fluid.2008.07.001)
Numbers after ± are expanded uncertainties.

Columns and labels:
[1] = 298.15 K; 101.33 kPa; Liquid
[2] = refractive index (Na D-line) (dimensionless); settings: 298.15 K; 101.33 kPa; Liquid; Standard Abbe refractometry

CC(C)CO [2-methyl-1-propanol]
mass density [1]: 797.83 ± 0.48 kg/m3 | refractive index [2]: 1.3938 ± 0.0005

CC(=O)OCC(C)C [2-methylpropyl ethanoate]
mass density [1]: 866.12 ± 1.4 kg/m3 | refractive index [2]: 1.3876 ± 0.0006

CC(=O)O [acetic acid]
mass density [1]: 1043.9 ± 0.11 kg/m3 | refractive index [2]: 1.3696 ± 0.0005

O [water]
refractive index [2]: 1.3325 ± 0.0005
